Test results taken from PubChem BioAssay (NCI).
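48-hour exposure; five concentrations; linearly interpolated endpoints. GI50 = concentration required for 50% inhibition of growth. TGI: total growth inhibition.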

Columns and labels:
Experiment in all cases: DTP human tumour cell line panel, 48 h
CAKI-1 renal = system: CAKI-1 renal
EKVX NSCLC = system: EKVX NSCLC
HOP-92 NSCLC = system: HOP-92 NSCLC
HS 578T breast = system: HS 578T breast
IGROV1 ovarian = system: IGROV1 ovarian
LOX IMVI melanoma = system: LOX IMVI melanoma
OVCAR-3 ovarian = system: OVCAR-3 ovarian
SF-539 CNS = system: SF-539 CNS
SNB-75 CNS = system: SNB-75 CNS
T-47D breast = system: T-47D breast

| SMILES | TGI (CAKI-1 renal) [µM] | TGI (EKVX NSCLC) [µM] | TGI (HOP-92 NSCLC) [µM] | TGI (HS 578T breast) [µM] | TGI (IGROV1 ovarian) [µM] | TGI (LOX IMVI melanoma) [µM] | TGI (OVCAR-3 ovarian) [µM] | TGI (SF-539 CNS) [µM] | TGI (SNB-75 CNS) [µM] | TGI (T-47D breast) [µM] | GI50 (CAKI-1 renal) [µM] | GI50 (EKVX NSCLC) [µM] | GI50 (HOP-92 NSCLC) [µM] | GI50 (HS 578T breast) [µM] | GI50 (IGROV1 ovarian) [µM] | GI50 (LOX IMVI melanoma) [µM] | GI50 (OVCAR-3 ovarian) [µM] | GI50 (SF-539 CNS) [µM] | GI50 (SNB-75 CNS) [µM] | GI50 (T-47D breast) [µM] |
| --- | --- | --- | --- | --- | --- | --- | --- | --- | --- | --- | --- | --- | --- | --- | --- | --- | --- | --- | --- | --- |
| COC(=O)C1CC23C4=C(CCC41)CCC1CN4CC(C)C(CC(OC(C)=O)C12COC(C)=O)C43O (stereo not given) | > 100 | > 100 | > 100 | > 100 | > 100 | > 100 | > 100 | > 100 | > 100 | > 100 |  |  |  |  |  |  |  |  |  |  |
| O/C(=C\c1nc2ccccc2nc1/C=C(\O)c1ccc(F)cc1)c1ccc(F)cc1 | > 100 | > 100 | > 100 | > 100 | > 100 | > 100 | > 100 | > 100 | > 100 | > 100 |  |  |  |  |  |  |  |  |  |  |
| Cn1c2[n+](c3nc(N)[nH]c(=O)c31)C1OC(C2)C(O)C1O (stereo not given) | > 100 | > 100 | > 100 |  | > 100 | > 100 | > 100 | > 100 | > 100 |  |  |  |  |  |  |  |  |  |  |  |
| Cc1ccc2nc(-c3ccc(NC(=O)c4ccc(N)cc4)c(S(=O)(=O)O)c3)sc2c1 | > 100 | > 100 | > 100 | > 100 | > 100 | > 100 | > 100 |  | > 100 | > 100 |  |  |  |  |  |  |  |  |  |  |
| O=C(Nc1ccc(-n2ccc3c(NC(=O)c4ccccc4)nccc32)cc1)Nc1cccc(C(F)(F)F)c1 | 37.4 | 22.1 | 11.7 | 40 | 30.9 | 10.9 | 7.15 | 18.4 | 23.3 | 31 | 10.8 | 5.73 | 2.59 | 6.39 | 10 | 2.38 | 2.93 | 1.75 | 7.67 | 11.1 |
| CCOCC(=O)N(C)c1cccc2c3c(n(C)c12)CCCCC3 | > 100 | > 100 | > 100 |  | > 100 | > 100 | > 100 | > 100 | > 100 |  |  |  |  |  |  |  |  |  |  |  |
| CS(C)(=O)=Nn1c(=O)n2n(c1=O)C1c3ccccc3C2c2ccccc21 | > 100 | > 100 | > 100 |  | > 100 | > 100 | > 100 | > 100 |  | > 100 |  |  |  |  |  |  |  |  |  |  |
| N#Cc1ccccc1C#C/C=C\C#Cc1ccccc1N | 0.634 | > 57.3 | > 78.2 | > 25.5 |  | > 35.4 | 2.64 | > 20.2 | > 25.3 | > 100 | 0.129 | 10 | 2.45 | 5.29 |  | 4.04 | 0.165 | 4.49 | 6.13 | 8.72 |
| O=C1/C(=C/c2[nH]ncc2-c2ccc(Cl)cc2)C(=O)N(c2ccccc2)C1c1ccccc1 (stereo not given) | 31.1 | 51.3 | 76 | 24.2 | 45.1 | 32.4 | 26.9 | 58.8 |  | 17.3 |  |  |  |  |  |  |  |  |  |  |
| O=S(=O)(O)c1ccc2c(N=Nc3ccc(N=Nc4ccccc4)cc3)c(O)c(S(=O)(=O)O)cc2c1 | > 100 | > 100 | > 100 | > 100 | > 100 |  | > 100 | > 100 |  | > 100 |  |  |  |  |  |  |  |  |  |  |
| O=C1C2Cc3c(n(C(=O)c4ccccc4)c4ccccc34)CC2C(=O)N1c1ccc(Nc2ccc(N3C(=O)C4Cc5c(n(C(=O)c6ccccc6)c6ccccc56)CC4C3=O)cc2)cc1 (stereo not given) | > 100 | > 100 | > 100 | > 100 | > 100 | > 100 | > 100 |  | > 100 | > 100 |  |  |  |  |  |  |  |  |  |  |
| Cc1cc(C)c2c(=O)n(CC(O)CN3CCN(CCOCCO)CC3)sc2n1 (stereo not given) | > 100 | 35.3 | 40.6 | 77.8 | > 100 | 37.1 | 41.3 | 38.4 | 5.78 | 47.2 |  |  |  |  |  |  |  |  |  |  |
| CC1=C[C@@H](C)C[C@]2(C)CC[C@H](O2)[C@]23CC[C@](CO)(C[C@H](O2)[C@@H]2O[C@@](C)(CC2=O)[C@@H](O)[C@H]2CC[C@@]4(CCC[C@@H](O4)[C@H](C)C(=O)O[C@H]4C[C@H]([C@]5(O)OCC[C@H](C)[C@@H]5O)O[C@H]4C=C1)O2)O3 | 0.107 |  | 0.00697 | 0.00776 | 0.0561 | 0.155 | 0.102 |  | 0.00179 | > 10 |  |  |  |  |  |  |  |  |  |  |
| Nc1nnc(CCC(=O)Nc2cc(Cl)ccc2Cl)n1N | > 100 | > 100 | > 100 |  | > 100 | > 100 | > 100 | > 100 | > 100 |  |  |  |  |  |  |  |  |  |  |  |
| Nc1cc(S(=O)(=O)O)cc2ccc(S(=O)(=O)O)cc12 | > 100 | > 100 | > 100 | > 100 | > 100 | > 100 | > 100 | > 100 | > 100 | > 100 |  |  |  |  |  |  |  |  |  |  |
| O=C(/C=C1\N=C(c2ccccc2)N(c2nc3c(Cl)cc(Cl)cc3s2)C1=O)/C=C/c1ccccc1 | > 100 | > 100 | > 100 | > 100 | > 100 | > 100 | > 100 |  | > 100 | > 100 |  |  |  |  |  |  |  |  |  |  |
| COc1cccc(/C=N/[N-]C(N)=O)c1[O-].[Ni+2].[OH3+] | 2.19 | 2.57 | 0.934 |  | 0.811 | 2.15 | 0.596 | 2.28 | 1.57 |  |  |  |  |  |  |  |  |  |  |  |
